Reference: the NIST ThermoML archive (doi:10.1016/j.jct.2004.04.013)
Where “and” joins values, the source holds several entries; their conditions need not be identical. Identical values can stand only once. Numbers after ± are expanded uncertainties.

Conditions: Liquid, Pulse-echo method

c1ccccc1 [benzene]
Conditions	speed of sound
283.15 K, 101 kPa	1371.6 ± 2.8 m/s
283.15 K, 1112 kPa	1376.8 ± 2.8 m/s
283.15 K, 2281 kPa	1382.4 ± 2.8 m/s
283.15 K, 4616 kPa	1393.2 ± 2.9 m/s
283.15 K, 6766 kPa	1403.3 ± 2.9 m/s
283.15 K, 9100 kPa	1413.6 ± 2.9 m/s
283.15 K, 11628 kPa	1424.5 ± 2.9 m/s
283.15 K, 14278 kPa	1436 ± 2.9 m/s
283.15 K, 15957 kPa	1443.4 ± 3 m/s
283.15 K, 18556 kPa	1454 ± 3 m/s
283.15 K, 20823 kPa	1463 ± 3 m/s
283.15 K, 23405 kPa	1473.4 ± 3 m/s
298.15 K, 101 kPa	1299.9 ± 2.7 m/s and 1300.2 ± 2.7 m/s
298.15 K, 888 kPa	1305 ± 2.7 m/s
298.15 K, 1246 kPa	1305.8 ± 2.7 m/s
298.15 K, 2254 kPa	1311.8 ± 2.7 m/s
298.15 K, 2506 kPa	1312.2 ± 2.7 m/s
298.15 K, 4580 kPa	1322.5 ± 2.7 m/s
298.15 K, 4719 kPa	1323.9 ± 2.7 m/s
298.15 K, 6991 kPa	1334.4 ± 2.7 m/s
298.15 K, 7131 kPa	1335.5 ± 2.7 m/s
298.15 K, 9327 kPa	1346.2 ± 2.8 m/s
298.15 K, 9335 kPa	1346.2 ± 2.8 m/s
298.15 K, 9408 kPa	1346 ± 2.8 m/s
298.15 K, 11563 kPa	1355.8 ± 2.8 m/s
298.15 K, 11640 kPa	1357 ± 2.8 m/s
298.15 K, 14137 kPa	1368.5 ± 2.8 m/s
298.15 K, 14317 kPa	1368.6 ± 2.8 m/s
298.15 K, 15927 kPa	1375.9 ± 2.8 m/s
298.15 K, 16524 kPa	1379.1 ± 2.8 m/s
298.15 K, 18655 kPa	1388.6 ± 2.9 m/s
298.15 K, 18844 kPa	1389 ± 2.9 m/s
298.15 K, 20826 kPa	1398.1 ± 2.9 m/s
298.15 K, 21001 kPa	1398.6 ± 2.9 m/s
298.15 K, 23151 kPa	1407.9 ± 2.9 m/s
298.15 K, 23834 kPa	1410.7 ± 2.9 m/s
298.15 K, 25699 kPa	1418.5 ± 2.9 m/s
298.15 K, 26172 kPa	1420.5 ± 2.9 m/s
298.15 K, 28369 kPa	1428.5 ± 2.9 m/s
313.15 K, 101 kPa	1230.8 ± 2.5 m/s
313.15 K, 2047 kPa	1241.3 ± 2.6 m/s
313.15 K, 3268 kPa	1247.8 ± 2.6 m/s
313.15 K, 5111 kPa	1257.8 ± 2.6 m/s
313.15 K, 7199 kPa	1268.7 ± 2.6 m/s
313.15 K, 9383 kPa	1280 ± 2.6 m/s
313.15 K, 11613 kPa	1291.3 ± 2.7 m/s
313.15 K, 14139 kPa	1303.7 ± 2.7 m/s
313.15 K, 16386 kPa	1314.6 ± 2.7 m/s
313.15 K, 18686 kPa	1325.5 ± 2.7 m/s
313.15 K, 21242 kPa	1337.2 ± 2.7 m/s
313.15 K, 23254 kPa	1346.4 ± 2.8 m/s
313.15 K, 24384 kPa	1351.3 ± 2.8 m/s
313.15 K, 25607 kPa	1357.2 ± 2.8 m/s
313.15 K, 25608 kPa	1357.3 ± 2.8 m/s
313.15 K, 28210 kPa	1368.6 ± 2.8 m/s
333.15 K, 101 kPa	1142.4 ± 2.4 m/s
333.15 K, 1260 kPa	1148 ± 2.4 m/s
333.15 K, 2426 kPa	1155 ± 2.4 m/s
333.15 K, 5026 kPa	1170.5 ± 2.4 m/s
333.15 K, 7135 kPa	1182.9 ± 2.4 m/s
333.15 K, 9195 kPa	1194.5 ± 2.5 m/s
333.15 K, 11729 kPa	1208.4 ± 2.5 m/s
333.15 K, 14011 kPa	1220.6 ± 2.5 m/s
333.15 K, 16310 kPa	1232.7 ± 2.5 m/s
333.15 K, 18687 kPa	1244.8 ± 2.6 m/s
333.15 K, 20059 kPa	1251.8 ± 2.6 m/s
333.15 K, 21112 kPa	1257.2 ± 2.6 m/s
333.15 K, 23196 kPa	1267.4 ± 2.6 m/s
333.15 K, 25517 kPa	1278.7 ± 2.6 m/s
333.15 K, 28165 kPa	1287.7 ± 2.6 m/s

ClC(Cl)(Cl)Cl [tetrachloromethane]
Conditions	speed of sound [m/s]
283.15 K, 101 kPa	969.1 ± 2
283.15 K, 497 kPa	970.5 ± 2
283.15 K, 1065 kPa	972.7 ± 2
283.15 K, 2192 kPa	976.9 ± 2
283.15 K, 2306 kPa	977.4 ± 2
283.15 K, 3433 kPa	981.6 ± 2
283.15 K, 5102 kPa	987.7 ± 2
283.15 K, 5958 kPa	990.8 ± 2
283.15 K, 7972 kPa	998 ± 2.1
283.15 K, 8771 kPa	1000.6 ± 2.1
283.15 K, 9833 kPa	1004.6 ± 2.1
283.15 K, 11260 kPa	1009.5 ± 2.1
283.15 K, 12970 kPa	1015.5 ± 2.1
283.15 K, 13650 kPa	1017.6 ± 2.1
283.15 K, 16043 kPa	1026 ± 2.1
283.15 K, 19058 kPa	1035.9 ± 2.1
283.15 K, 22343 kPa	1046.6 ± 2.2
283.15 K, 25816 kPa	1057.5 ± 2.2
283.15 K, 30453 kPa	1071.7 ± 2.2
298.15 K, 101 kPa	921.1 ± 1.9
298.15 K, 583 kPa	923.1 ± 1.9
298.15 K, 865 kPa	924.2 ± 1.9
298.15 K, 887 kPa	924.4 ± 1.9
298.15 K, 1384 kPa	926.4 ± 1.9
298.15 K, 1731 kPa	927.8 ± 1.9
298.15 K, 1900 kPa	928.4 ± 1.9
298.15 K, 2056 kPa	929.1 ± 1.9
298.15 K, 2905 kPa	932.5 ± 1.9
298.15 K, 3020 kPa	933 ± 1.9
298.15 K, 3919 kPa	936.6 ± 1.9
298.15 K, 4367 kPa	938.4 ± 1.9
298.15 K, 4908 kPa	940.5 ± 1.9
298.15 K, 5436 kPa	942.6 ± 1.9
298.15 K, 5946 kPa	944.5 ± 2
298.15 K, 6868 kPa	948 ± 2
298.15 K, 7358 kPa	949.9 ± 2
298.15 K, 7761 kPa	951.5 ± 2
298.15 K, 8818 kPa	955.5 ± 2
298.15 K, 8930 kPa	955.9 ± 2
298.15 K, 9903 kPa	959.6 ± 2
298.15 K, 10321 kPa	961.2 ± 2
298.15 K, 11239 kPa	964.6 ± 2
298.15 K, 12541 kPa	969.3 ± 2
298.15 K, 13397 kPa	972.5 ± 2
298.15 K, 14945 kPa	978 ± 2
298.15 K, 15313 kPa	979.4 ± 2
298.15 K, 17404 kPa	986.8 ± 2
298.15 K, 17674 kPa	987.8 ± 2
298.15 K, 20253 kPa	996.7 ± 2.1
298.15 K, 20404 kPa	997.2 ± 2.1
298.15 K, 22533 kPa	1004.5 ± 2.1
298.15 K, 24855 kPa	1012.3 ± 2.1
298.15 K, 24984 kPa	1012.8 ± 2.1
298.15 K, 25186 kPa	1013.4 ± 2.1
298.15 K, 27693 kPa	1021.7 ± 2.1
298.15 K, 29953 kPa	1029 ± 2.1
298.15 K, 30569 kPa	1030.8 ± 2.1
313.15 K, 101 kPa	874.2 ± 1.8
313.15 K, 108 kPa	874.2 ± 1.8
313.15 K, 478 kPa	875.9 ± 1.8
313.15 K, 894 kPa	877.7 ± 1.8
313.15 K, 1827 kPa	881.9 ± 1.8
313.15 K, 2938 kPa	886.7 ± 1.8
313.15 K, 4119 kPa	891.6 ± 1.8
313.15 K, 5135 kPa	896.1 ± 1.9
313.15 K, 5591 kPa	898 ± 1.9
313.15 K, 6975 kPa	903.6 ± 1.9
313.15 K, 8334 kPa	909.4 ± 1.9
313.15 K, 10049 kPa	916.2 ± 1.9
313.15 K, 12992 kPa	927.9 ± 1.9
313.15 K, 14421 kPa	933.4 ± 1.9
313.15 K, 16421 kPa	941.1 ± 1.9
313.15 K, 18812 kPa	949.9 ± 2
313.15 K, 20514 kPa	956.3 ± 2
313.15 K, 25209 kPa	972.9 ± 2
313.15 K, 31645 kPa	994.8 ± 2.1
333.15 K, 101 kPa	813 ± 1.7
333.15 K, 967 kPa	817.4 ± 1.7
333.15 K, 1691 kPa	820.9 ± 1.7
333.15 K, 2195 kPa	823.4 ± 1.7
333.15 K, 3177 kPa	828.1 ± 1.7
333.15 K, 5118 kPa	837.4 ± 1.7
333.15 K, 5595 kPa	839.5 ± 1.7
333.15 K, 7312 kPa	847.3 ± 1.8
333.15 K, 8236 kPa	851.5 ± 1.8
333.15 K, 9201 kPa	855.8 ± 1.8
333.15 K, 10593 kPa	862 ± 1.8
333.15 K, 11851 kPa	867.4 ± 1.8
333.15 K, 13131 kPa	872.9 ± 1.8
333.15 K, 14740 kPa	879.6 ± 1.8
333.15 K, 15989 kPa	884.8 ± 1.8
333.15 K, 17758 kPa	892.1 ± 1.8
333.15 K, 19476 kPa	898.9 ± 1.9
333.15 K, 20905 kPa	904.6 ± 1.9
333.15 K, 22422 kPa	910.5 ± 1.9
333.15 K, 25433 kPa	922 ± 1.9
333.15 K, 27880 kPa	931.1 ± 1.9
333.15 K, 31372 kPa	943.7 ± 1.9
